Where two headings read alike, the source gives them in different places.
What was measured:
[1] = Critical micelle concentration, fluorimetric determination with DPH dye; type: physicochemical
Method: The critical micelle concentration (CMC) was also determined for each compound. The CMC is the concentration of surfactant above which micelles spontaneously form. CMC is an important characteristic of a surfactant. At surfactant concentrations below the CMC, surface tension varies widely with surfactant concentration. At concentrations above the CMC, surface tension remains fairly constant. A lower CMC indicates less surfactant is needed to saturate interfaces and form micelles. Typical CMC values are less than 1 weight percent (10,000 ppm).
The fluorimetric determination of CMC described by Chattopadhyay and London (Analytical Biochemistry, Vol. 139, pp. 408-412 (1984)) was used to obtain the critical micelle concentrations found in Table 3 below. This method employs the fluorescent dye 1,6-diphenyl-1,3,5-hexatriene (DPH) in a solution of the surface-active agent. The analysis is based on differences in fluorescence upon incorporation of the dye into the interior of the micelles. As the solution exceeds CMC, a large increase in fluorescence intensity is observed.

[2] = buffer, pH 4.5
Method: The resulting mixture was placed in a 50° C. oven. Samples were taken periodically and analyzed for the amount of 3-(lauroyloxypropyldimethylammonio)-2-hydroxypropanesulfonate remaining by quantitative HPLC.
Samples were taken periodically and analyzed for the amount of 3-(cocoyloxypropyldimethylammonio)acetate remaining by quantitative HPLC.

[3] = Foaming properties, ASTM 1173-07 foam height test; type: physicochemical
Source text: The Standard Test Method for Foaming Properties of Surface-Active Agents (ASTM 1173-07) was used to determine the foaming properties of the ester sulfonates 1 described herein. This method generates foam under low-agitation conditions and is generally used for moderate- and high-foam surfactants. This test gathers data on initial foam height and foam decay.
Foam decay provides information on foam stability.
The apparatus for carrying out this test includes a jacketed column and a pipet. The jacketed column serves as a receiver, while the pipet delivers the surface-active solution. Solutions of each surface-active agent were prepared. The amphoteric ester sulphonate solution to be tested was added to the receiver (50 mL) and to the pipet (200 mL). The pipet was positioned above the receiver and opened. As the solution fell and made contact with the solution in the receiver, foam was generated. When the pipet was empty, the time was noted and an initial foam height was recorded. The foam height was recorded each minute for five minutes. Exact size specifications for the glassware can be found in ASTM 1173-07. The foam height results for each ester sulfonate 1 and representative standards are listed below in Tables 1 (0.1% concentration) and 2 (1% concentration).

## CCCCCCCCCCCCOS(=O)(=O)[O-].[Na+] [sodium lauryl sulfate]
[1]
  CMC: 8.27 mM
  CMC (ppm): 2386 ppm

## CCCCCCCCCCCCOS(=O)(=O)O.N [ammonium lauryl sulfate]
[1]
  CMC: 1.38 mM
  CMC (ppm): 392 ppm

## CCCCCCCCCCCC(=O)OCCC[N+](C)(C)CC(O)CS(=O)(=O)[O-] (centres unmarked) [Example 31, 3-(lauroyloxypropyldimethylammonio)-2-hydroxypropanesulfonate]
[2]; 0 h
  Percent Amphoteric Remaining: 100%
[2]; 336 h
  Percent Amphoteric Remaining: 98%
[2]; 1008 h
  Percent Amphoteric Remaining: 98%
[2]; 1344 h
  Percent Amphoteric Remaining: 94%
[2]; 2016 h
  Percent Amphoteric Remaining: 95%

## CCCCCCCCCCCC(=O)OC(C)CC[N+](C)(C)CC(O)CS(=O)(=O)[O-] (centres unmarked) [Example 27, 3-(3-(lauroyloxy)-1-butyldimethylammonio-1-yl)-2-hydroxypropanesulfonate]
[1]
  CMC: 0.060 mM
  CMC (ppm): 26.4 ppm
[3]; 1 g/L (0.1 weight %), t = 0 min
  Foam height (cm) at time t (min): 16.5 cm
[3]; 1 g/L (0.1 weight %), t = 1 min
  Foam height (cm) at time t (min): 16.0 cm
[3]; 1 g/L (0.1 weight %), t = 2 min
  Foam height (cm) at time t (min): 15.5 cm
[3]; 1 g/L (0.1 weight %), t = 3 min
  Foam height (cm) at time t (min): 15.5 cm
[3]; 1 g/L (0.1 weight %), t = 4 min
  Foam height (cm) at time t (min): 15.5 cm
[3]; 1 g/L (0.1 weight %), t = 5 min
  Foam height (cm) at time t (min): 15.0 cm
[3]; 10 g/L (1.0 weight %), t = 0 min
  Foam height (cm) at time t (min): 17.5 cm
[3]; 10 g/L (1.0 weight %), t = 1 min
  Foam height (cm) at time t (min): 17.0 cm
[3]; 10 g/L (1.0 weight %), t = 2 min
  Foam height (cm) at time t (min): 17.0 cm
[3]; 10 g/L (1.0 weight %), t = 3 min
  Foam height (cm) at time t (min): 16.5 cm
[3]; 10 g/L (1.0 weight %), t = 4 min
  Foam height (cm) at time t (min): 16.0 cm
[3]; 10 g/L (1.0 weight %), t = 5 min
  Foam height (cm) at time t (min): 15.5 cm
